Tests used:
[1] = system: Rattus norvegicus; experiment: Ratio of urinary excretion value (urinary volume) in treated rats to that in control rats, at a peroral dose of 6.25 mg/Kg; type: functional, Urine
[2] = system: Rattus norvegicus; experiment: Ratio of urinary excretion value (urinary volume) in treated rats to that in control rats, at a peroral dose of 25 mg/Kg; type: functional, Urine
[3] = system: Rattus norvegicus; experiment: Ratio of sodium ion/potassium ion concentration in treated rats to that in control rats, at a peroral dose of 25 mg/Kg; type: functional
[4] = system: Rattus norvegicus; experiment: Ratio of urinary excretion value (Na+ concentration) in treated rats to that in control rats, at a peroral dose of 1.5 mg/Kg; type: functional, Urine
[5] = system: Rattus norvegicus; experiment: Ratio of urinary excretion value (Na+ concentration) in treated rats to that in control rats, at a peroral dose of 25 mg/Kg; type: functional, Urine
[6] = system: Rattus norvegicus; experiment: Urea nitrogen concentration measured after intraperitoneal administration of 1 mg/kg of compound to rats(vehicle 156.1+/-8.4); type: functional
[7] = system: Rattus norvegicus; experiment: Effect on urinary excretion potassium and sodium after oral administration of 25 mg/kg to rats(potassium and sodium excretion in control rat is […]+/-[…]); type: functional, Urine
[8] = system: Rattus norvegicus; experiment: Oral diuretic activity was measured after oral administration of 25 mg/kg to rats(control volume is 0.74+/-0.05); type: functional, Urine
[9] = system: Rattus norvegicus; experiment: Urea nitrogen concentration measured after intraperitoneal administration of 0.1 mg/kg of compound to rats(vehicle 93.4+/-10); type: functional
[10] = system: Rattus norvegicus; experiment: Ratio of urinary excretion value (urinary volume) in treated rats to that in control rats, at a peroral dose of 1.5 mg/Kg; type: functional, Urine
[11] = biological target: T1, Adenosine A2 receptor (Rattus norvegicus, UniProt P29276+P30543)
[12] = system: Rattus norvegicus; experiment: Effect on urinary excretion potassium and sodium after oral administration of 1.5 mg/kg to rats(potassium and sodium excretion in control rat is 0.165+/-0.008); type: functional, Urine
[13] = system: Rattus norvegicus; experiment: Ratio of urinary excretion value (Na+ concentration) in treated rats to that in control rats, at a peroral dose of 6.25 mg/Kg; type: functional, Urine
[14] = system: Rattus norvegicus; experiment: Ratio of sodium ion/potassium ion concentration in treated rats to that in control rats, at a peroral dose of 1.5 mg/Kg; type: functional
[15] = system: Rattus norvegicus; experiment: Serum creatinine concentration measured after intraperitoneal administration of 1 mg/kg of compound to rats(vehicle 4.19+/-0.2); type: functional
[16] = system: Rattus norvegicus; experiment: Serum creatinine concentration measured after intraperitoneal administration of 0.1 mg/kg of compound to rats(vehicle 2.9+/-0.28); type: functional
[17] = system: Rattus norvegicus; experiment: Oral diuretic activity was measured after oral administration of 1.5 mg/kg to rats(control volume is 1.01+/-0.08); type: functional, Urine
[18] = system: Rattus norvegicus; experiment: Percent inhibition of serum creatinine by the compound given as ratio of Cr value in treated to vehicle treated ones after intraperitoneal administration of 1 mg/kg of compound to rats(vehicle 4.70+/-0.17); type: functional; settings: ip
[19] = system: Rattus norvegicus; experiment: Ratio of urinary excretion value (Na+ concentration) in treated rats to that in control rats, at a peroral dose of 1.6 mg/Kg; type: functional, Urine
[20] = system: Rattus norvegicus; experiment: Ratio of sodium ion/potassium ion concentration in treated rats to that in control rats, at a peroral dose of 1.6 mg/Kg; type: functional
[21] = system: Rattus norvegicus; experiment: Ratio of urinary excretion value (urinary volume) in treated rats to that in control rats, at a peroral dose of 1.6 mg/Kg; type: functional, Urine
[22] = system: Rattus norvegicus; experiment: Effect on urinary excretion potassium and sodium after oral administration of 1.6 mg/kg to rats(potassium and sodium excretion in control rat is 0.173+/-0.015); type: functional, Urine
[23] = system: Rattus norvegicus; experiment: Oral diuretic activity was measured after oral administration of 25 mg/kg to rats(control volume is 0.91+/-0.04); type: functional, Urine
[24] = system: Rattus norvegicus; experiment: Oral diuretic activity was measured after oral administration of 1.6 mg/kg to rats(control volume is 0.93+/-0.03); type: functional, Urine
[25] = system: Rattus norvegicus; experiment: Percent inhibition of Urea nitrogen by the compound given as ratio of UN value in treated to vehicle treated ones after intraperitoneal administration of 1 mg/kg of compound to rats(vehicle 154.2+/-5.0); type: functional; settings: ip
[26] = biological target: T2, Adenosine receptor A1 (Rattus norvegicus, UniProt P25099)
T2 sequence (P25099 whole entry): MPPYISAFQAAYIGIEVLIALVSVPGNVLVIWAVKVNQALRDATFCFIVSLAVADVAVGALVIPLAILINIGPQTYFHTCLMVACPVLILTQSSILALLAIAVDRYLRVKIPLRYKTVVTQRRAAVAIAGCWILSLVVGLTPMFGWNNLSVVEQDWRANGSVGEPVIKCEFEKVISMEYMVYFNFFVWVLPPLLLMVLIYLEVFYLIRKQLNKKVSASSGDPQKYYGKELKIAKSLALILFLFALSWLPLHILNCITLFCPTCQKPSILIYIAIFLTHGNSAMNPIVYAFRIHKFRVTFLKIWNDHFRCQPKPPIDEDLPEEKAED
Description: Binding affinity towards adenosine A1 receptor in rat cortical membranes using N6-[3H]cyclohexyladenosine as radioligand

[27] = system: Rattus norvegicus; experiment: Effect on urinary excretion potassium and sodium after oral administration of 25 mg/kg to rats(potassium and sodium excretion in control rat is 0.186+/-0.020); type: functional, Urine
[28] = system: Rattus norvegicus; experiment: Urea nitrogen concentration measured after intraperitoneal administration of 1 mg/kg of compound to rats(vehicle 154.2+/-5.0); type: functional
[29] = system: Rattus norvegicus; experiment: Serum creatinine concentration measured after intraperitoneal administration of 1 mg/kg of compound to rats(vehicle 4.70+/-0.17); type: functional
[30] = biological target: T1, Adenosine A2 receptor; remark: listed apart in the source
Description: Binding affinity towards adenosine A2 receptor in rat striatal membranes using N-[3H]-ethyladenosin-5''-uronamide as radioligand

[31] = biological target: T3, Adenosine receptor A1 (Cavia porcellus, UniProt P47745)
T3 sequence (P47745 whole entry): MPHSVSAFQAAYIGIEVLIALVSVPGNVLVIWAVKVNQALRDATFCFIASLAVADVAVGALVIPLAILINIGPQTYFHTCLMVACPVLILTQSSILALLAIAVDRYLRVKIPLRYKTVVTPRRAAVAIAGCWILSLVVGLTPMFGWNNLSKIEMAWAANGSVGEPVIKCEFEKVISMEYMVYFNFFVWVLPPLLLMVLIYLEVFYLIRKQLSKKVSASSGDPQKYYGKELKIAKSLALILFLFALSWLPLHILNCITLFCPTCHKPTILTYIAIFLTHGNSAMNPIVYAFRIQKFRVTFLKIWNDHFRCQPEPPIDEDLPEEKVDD
Description: Binding affinity against adenosine A1 receptor in guinea pig forebrain membranes using N6-[3H]cyclohexyladenosine as radioligand

[32] = system: Rattus norvegicus; experiment: Serum creatinine concentration measured after intraperitoneal administration of 10 mg/kg of compound to rats(vehicle 3.22+/-0.35); type: functional
[33] = system: Rattus norvegicus; experiment: Percent inhibition of serum creatinine by the compound given as ratio of Cr value in treated to vehicle treated ones after intraperitoneal administration of 10 mg/kg of compound to rats(vehicle 3.22+/-0.35); type: functional; settings: ip
[34] = system: Rattus norvegicus; experiment: Percent inhibition of Urea nitrogen by the compound given as ratio of UN value in treated to vehicle treated ones after intraperitoneal administration of 10 mg/kg of compound to rats(vehicle 110.7+/-9.4); type: functional; settings: ip
[35] = system: Rattus norvegicus; experiment: Oral diuretic activity was measured after oral administration of 25 mg/kg to rats(control volume is 1.21+/-0.08); type: functional, Urine

## CCCn1c(=O)[nH]c(=O)c2[nH]c(C(C3CC3)C3CC3)nc21
[1]
  T/C: 1.42
[2]
  T/C: 2.5
[3]
  Na+/K+: 1.4
[4]
  T/C: 1.22
[5]
  T/C: 2.16
[6]
  UN: 119.1 mg/dL
[7]
  Na: 0.328 m equiv 6hr-1 100g-1
[8]
  Urine volume: 1.85 ml 6hr-1 100g-1
[9]
  UN: 104.2 mg/dL
[10]
  T/C: 1.12
[11]
  Ki: > 100 µM
[12]
  Na: 0.202 m equiv 6hr-1 100g-1
[13]
  T/C: 1.69
[14]
  Na+/K+: 1.13
[15]
  Cr: 3 mg/dL
[16]
  Cr: 2.96 mg/dL
[17]
  Urine volume: 1.13 ml 6hr-1 100g-1

## FC(F)(F)c1nnc2c(NC3CCCC3)nc3ccc(Cl)cc3n12
[18]
  inhibition in vivo at 1 mg/kg: 45%
[1]
  T/C: 2.17
[2]
  T/C: 1.91
[19]
  T/C: 1.22
[3]
  Na+/K+: 1.31
[5]
  T/C: 1.74
[20]
  Na+/K+: 0.98
[21]
  T/C: 1.15
[22]
  Na: 0.212 m equiv 6hr-1 100g-1
[23]
  Urine volume: 1.74 ml 6hr-1 100g-1
[24]
  Urine volume: 1.07 ml 6hr-1 100g-1
[25]
  inhibition in vivo at 1 mg/kg: 42%
[26]
  Ki: 0.0055 µM
[11]
  Ki: 0.71 µM
[13]
  T/C: 1.82
[27]
  Na: 0.323 m equiv 6hr-1 100g-1
[28]
  UN: 88.7 mg/dL
[29]
  Cr: 2.58 mg/dL
[30]
  Ki: 2.1 µM
[31]
  Ki: 0.036 µM

## NS(=O)(=O)c1cc(C(=O)O)c(NCc2ccco2)cc1Cl [FUROSEMIDE]
[1]
  T/C: 1.59
[2]
  T/C: 1.75
[19]
  T/C: 0.94
[3]
  Na+/K+: 1.05
[5]
  T/C: 1.64
[20]
  Na+/K+: 0.87
[21]
  T/C: 1
[13]
  T/C: 1.62
[32]
  Cr: 4.17 mg/dL
[33]
  inhibition in vivo at 10 mg/kg: -30%
[34]
  inhibition in vivo at 10 mg/kg: -36%
[35]
  Urine volume: 2.12 ml 6hr-1 100g-1
